Results: US5316773A, “Particulate preparation containing a flourracil derivative and hydroxypropylmethyl-cellulose” (Otsuka Pharmaceutical Co., Ltd., priority 1990, dated 1994)

Legend:
[1] = Absorption test using beagle (oral administration, EM-FU concentration in plasma); type: in vivo; conditions: preparations corresponding to 100 mg BOF-A2 per beagle, all cases
[2] = after administration in vivo; via conversion into EM-FU and CNDP; cited from earlier work

CCOCn1cc(F)c(=O)n(C(=O)c2cccc(C(=O)Oc3nc(OC(=O)c4ccccc4)ccc3C#N)c2)c1=O [BOF-A2, 3-[3-(6-Benzoyloxy-3-cyano-2-pyridyloxycarbonyl)benzoyl]-1-ethoxymethyl-5-fluorouracil]
non-changed compound (BOF-A2) in plasma [1]: not detected
anti-cancer activity [2]: continuous and strong anti-cancer activity
